Data published in patent publication US12594255B2, “Lipids with odd number of carbon atoms and their use as pharmaceutical composition or nutritional supplement” (SunRegen Healthcare AG, priority 2016, dated 2026).

Legend:
Assay type in all cases: cell-based
[1] = test system: mouse primary cortical neurons challenged with Aβ1-42 oligomers (AβO); assay: AβO-induced neurotoxicity, test item added concomitantly (T0) or 3 h (T3) or 6 h (T6) after AβO, MTT assay; details: for % of neuroprotection and anti-apoptotic effects / viability at 1 µM: 1000 nM
Experimental: Mouse primary cortical neurons were treated at 0 h (T0) with vehicle or 1 μM AβO, Different concentrations of Compound C or HNG (0.1 μM, used as positive control) were added concomitantly to AβO at 0 h (T0)), 3 h (T3) or 6 h (T6) after AβO. Then, cortical neurons were incubated for 24 h and cell viability was determined using the MTT assay (n=3 determinations per condition, 1 independent experiment). Data are represented as % of vehicle control (Mean±SD). […]
The aim of this study is to determine whether Compound C might present neuroprotective, anti-apoptotic and neuro-rescuing effects in in vitro AβO induced neuron death models. For that purpose, the neuro-protective effects of compound C at six concentrations were investigated using mouse primary cortical neurons challenged with Aβ1-42 oligomers (AβO) Compounds were added at different time points (concomitantly T0 with AβO and T3, or T6 after AβO) with the aim to identify rescuing effects or anti-apoptotic effects.
Cortical neurons from embryonic day 16-17 are prepared from C57Bl6/J mouse fetuses, as described in Example I-1.
Mouse cortical neurons were exposed for 24 h to 1.0 μM AβO. The AβO-induced neurotoxicity was evaluated using the MTT assay. […] (FIG. 4)
The percentage of neuroprotection and anti-apoptosis effects was defined as; (neuron viability of compound C group−neuron viability of toxin treated group)/(100−neuron viability of toxin treated group)×100%. The % of neuroprotection and anti-apoptotic effects of compound C at 1000 nM is 88.7%, 52.0%, 22.3%, at T0, T3, or T6, respectively. (FIG. 4) […]

[2] = test system: mouse primary cortical neurons challenged with Aβ1-42 oligomers (AβO); assay: AβO-induced neurotoxicity, 48-h pre-incubation with test item, MTT assay; details: 48 h pre-incubation, then 1 μM AβO 24 h
Experimental: Mouse primary cortical neurons were pre-incubated for 48 h with vehicle, 0.05 μM DHA (used as positive control) or different concentrations of Compound C. Then, cortical neurons were treated for 24 h with vehicle (FIG. 1 left) or 1 μM AβO ([…]) and cell viability was determined using the MTT assay (n=3 determinations per condition, 1 independent experiment), Data are represented as % of vehicle control (Mean*SD). […]
(§1) Cortical neurons from embryonic day 16-17 are prepared from C57BL6/J mouse fetuses. In brief, dissociated cortical cells were plated (50.000 cells/well) in 48-well plates pre-coated with 1.5 μg/mL polyornithine (Sigma). Cells were cultured in a chemically defined Dulbecco's modified eagle's/F12 medium free of serum and supplemented with hormones, proteins and salts. Cultures were kept at 35° C. in a humidified 6% CO2 atmosphere. Mouse cortical neurons were exposed for 24 h to 1.0 μM AβO after a 48-h pre-incubation with vehicle or different concentrations of Compound C. The AβO-induced neurotoxicity was evaluated using the MTT assay.
All treatments were done in triplicates in 48-well plates. Cells were incubated with vehicle or 1 μM AβO in the absence or presence of different lipids at the indicated final concentrations) added at 48 hours before ADO. Cells were incubated with AβO for 24 h in a final volume of 140 μL per well.
For positive controls, cells are treated similarly (48 hours before AβO) in the presence of 0.05 μM DHA.
Following AβO-treatment, cell viability was measured using the MTT assay. Briefly, cells were incubated at 35° C. for 1 h with MTT (Sigma, Cat #M2128-10G. Lot #MKBH7489V). For that purpose, 14 μL of 5 mg/mL MITT (solubilized in PBS) were added in each well. After incubation, medium was removed and cells were lyzed with 150 μL DMSO for 10 minutes and protected from light. After complete solubilization of formazan, absorbance at 570 nm was recorded.
as §1, with “cells are” for “cells were”, “Cells are” for “Cells were”, “Cultures are” for “Cultures were”, “of herb B extracts.” for “of Compound C.”, “assay. […]” for “assay.”

[3] = Cell viability of neurons pre-incubated 48 h with test item only (no AβO), MTT assay; details: C57BL6/J, mouse, mouse primary cortical neurons, 1 nM compound C only, 48 h pre-incubation
Experimental: (§2) Mouse primary cortical neurons were pre-incubated for 48 h with vehicle, 0.05 μM DHA (used as positive control) or different concentrations of Compound C. Then, cortical neurons were treated for 24 h with vehicle (FIG. 1 left) or 1 μM AβO (FIG. 2 right) and cell viability was determined using the MTT assay (n=3 determinations per condition, 1 independent experiment), Data are represented as % of vehicle control (Mean*SD).
as §2, with “of Herb B Extracts.” for “of Compound C.”, “(FIG. 10” for “(FIG. 1”, “(FIG. 11” for “(FIG. 2”, “control (Mean±SD).” for “control (Mean*SD).”
Cortical neurons from embryonic day 16-17 are prepared from C57BL6/J mouse fetuses. In brief, dissociated cortical cells were plated (50.000 cells/well) in 48-well plates pre-coated with 1.5 μg/mL polyornithine (Sigma). […] The AβO-induced neurotoxicity was evaluated using the MTT assay.
Cortical neurons from embryonic day 16-17 are prepared from C57BL6/J mouse fetuses. […] The AβO-induced neurotoxicity was evaluated using the MTT assay. […]

CCCCCCCCCCCCCCC(=O)OCC(COC(=O)CCCCCCCCCCCCCC)OC(=O)CCCCCCCCCCCCCC [Compound C, tripentadecanoin]
% of neuroprotection and anti-apoptotic effects ([1]; T0): 88.7% | % of neuroprotection and anti-apoptotic effects ([1]; T3): 52.0% | % of neuroprotection and anti-apoptotic effects ([1]; T6): 22.3% | viability at 0.32 µM ([1]; Mus musculus, Primary cortical neuron, 320 nM, added 3 h after AβO (T3)): 65.3 ± 2.6% | viability at 1 µM ([1]; Mus musculus, Primary cortical neuron, added 3 h after AβO (T3)): 76.6 ± 2.9% | viability at 1 µM ([1]; Mus musculus, Primary cortical neuron, added 6 h after AβO (T6)): 62.4 ± 3.5% | viability at 1 µM ([1]; Mus musculus, Primary cortical neuron, added concomitantly to AβO (T0)): 94.5 ± 4.6% | maximal neuroprotective effect ([2]; Compound C 320 nM): 100% | EC50 ([2]; Mus musculus, Primary cortical neuron, expected around, read-out: EC50 effect (neuroprotection)): ~66 nM | viability at 0.32 µM ([2]; Mus musculus, Primary cortical neuron, Compound C 320 nM, read-out: cell viability): 112 ± 1.5% | viability at 48 h, 0.001 µM [3]: 117 ± 3.7%
